Read-outs that look alike come from different tables or passages of the source.
Key:
[1] = Cytotoxicity by methylene blue assay; type: cell-based; conditions: human, Huh-luc/neo-ET cells
Method: The cytotoxicity of different herbal extract or components was measured by methylene blue assay. Huh-luc/neo-ET cells were seeded at a density of 7 × 10^3 cells per well in 96-well plate and treated with serial dilution of different herb extracts for 72 h. Cells were fixed and stained with 0.5% methylene blue in 50% ethanol, and then washed with tap water. After air-dry, cells were solubilized with 1% Sarkosyl and cell viability was determined from the extent absorption by spectrophotometric measurements at 595 nm (Spectra Max M5, Molecular Devices).

[2] = tested on: HCV genotype 1b (Con1) replicon; assay: Anti-HCV luciferase reporter assay on Huh-luc/neo-ET replicon cells; conditions: Hepatitis C virus, GETYPE1B, 72 h
[3] = tested on: different subtypes of human and avian influenza viruses; conditions: cited from earlier work
J399EM virus = tested on: J399EM virus; set-up: method as in PMID 22491814; conditions: cited from earlier work
[4] = tested on: HCV JFH1-GFP chimeric virus; set-up: method as in PMID 22491814; conditions: read-out: EC50, replication of HCV JFH1-GFP chimeric virus; cited from earlier work
HCV entry = tested on: HCV entry; set-up: method as in PMID 22491814; conditions: cited from earlier work
[5] = read-out: Anti-HCV Activity (EC50, 72 h)
[6] = read-out: Anti-HCV Activity (EC50)
[7] = read-out: Anti-HCV Activity (EC50), in brackets as mass concentration

Oc1cc(O)c2c(c1)O[C@H](c1ccc(O)c(O)c1)[C@@H](O)C2 [(+)-Catechin]
IC50 at 72 h [1]: > 100 µM | EC50 [2, 5]: > 100 µM

COc1cc(C[C@H]2CO[C@H](c3ccc(O[C@@H]4O[C@H](CO)[C@@H](O)[C@H](O)[C@H]4O)c(OC)c3)[C@H]2CO)ccc1O[C@@H]1O[C@H](CO)[C@@H](O)[C@H](O)[C@H]1O [Clemastanin B]
inhibitory concentrations against influenza viruses [3]: below 1 mg/mL

COC(=O)N[C@H](C(=O)N1CCC[C@H]1c1nc(-c2ccc(-c3ccc(-c4c[nH]c([C@@H]5CCCN5C(=O)[C@@H](NC(=O)OC)C(C)C)n4)cc3)cc2)c[nH]1)C(C)C [Daclatasvir, daclatasvir]
EC50 [2, 6]: 8e-06 ± 1e-06 µM | EC50 [2, 7]: 0.00591 ng/mL

Oc1cc(O)c2c(c1)O[C@H](c1ccc(O)c(O)c1)[C@H](O)C2 [EC, epicatechin]
IC50 at 72 h [1]: > 100 µM | EC50 [2, 5]: > 100 µM

O=C(O[C@@H]1Cc2c(O)cc(O)cc2O[C@@H]1c1ccc(O)c(O)c1)c1cc(O)c(O)c(O)c1 [ECG, epicatechin gallate]
IC50 at 72 h [1]: > 100 µM | EC50 [2, 5]: 69.8 ± 5.62 µM

Oc1cc(O)c2c(c1)O[C@H](c1cc(O)c(O)c(O)c1)[C@H](O)C2 [EGC, epigallocatechin]
IC50 at 72 h [1]: > 100 µM | EC50 [2, 5]: > 100 µM

O=C(O[C@@H]1Cc2c(O)cc(O)cc2O[C@@H]1c1cc(O)c(O)c(O)c1)c1cc(O)c(O)c(O)c1 [EGCG, epigallocatechin gallate]
EC50 (J399EM virus): 80 µM | EC50 [4]: 17.9 µM | EC50 (HCV entry): 25 µM | IC50 at 72 h [1]: > 100 µM | EC50 [2, 5]: 68.7 ± 4.51 µM

O=C(O)c1cc(O)c(O)c(O)c1 [Gallic acid, gallic acid]
IC50 at 72 h [1]: > 100 µM | EC50 [2, 5]: > 100 µM

COc1ccc2c(O[C@@H]3C[C@H]4C(=O)N[C@]5(C(=O)NS(=O)(=O)C6CC6)C[C@H]5/C=C\CCCCN(C)C(=O)[C@@H]4C3)cc(-c3nc(C(C)C)cs3)nc2c1C [Simeprevir, simeprevir]
EC50 [2, 6]: 0.00127 ± 0.00025 µM | EC50 [2, 7]: 42.5 ng/mL

CC(C)OC(=O)[C@H](C)N[P@](=O)(OC[C@H]1O[C@@H](n2ccc(=O)[nH]c2=O)[C@](C)(F)[C@@H]1O)Oc1ccccc1 [Sofosbuvir, sofosbuvir]
EC50 [2, 6]: 0.0263 ± 0.0055 µM | EC50 [2, 7]: 13.9 ng/mL

CCC[C@H](NC(=O)[C@@H]1[C@H]2CCC[C@H]2CN1C(=O)[C@@H](NC(=O)[C@@H](NC(=O)c1cnccn1)C1CCCCC1)C(C)(C)C)C(=O)C(=O)NC1CC1 [Telaprevir, telaprevir]
EC50 [2, 6]: 0.185 ± 0.035 µM | EC50 [2, 7]: 126 ng/mL

Source: publication PMC6274077, “In Vitro Study on Anti-Hepatitis C Virus Activity of Spatholobus suberectus Dunn” (Molecules, 2016)
